Measured values: US10202370B2, “Benzimidazole derivatives as selective proteine kinase inhibitors” (AB SCIENCE, priority 2013, dated 2019)

Each compound was assayed against c-kit WT (Homo sapiens (Human), UniProt P10721) (assay: Proliferation assay (CellTiter-Blue) on BaF3 Kit WT cell line). Conditions: BaF3 Kit WT cell line (murine Ba/F3 expressing Human Kit WT, with murine SCF), 48 hours.
Type: cell-based
Procedure: Procedures of C-Kit WT Inhibition Assays:
Colorimetric cell proliferation and viability assay (reagent CellTiter-Blue purchased from Promega cat N°G8081) was performed on BaF3 Kit WT cell line.
A total of 2.10^4 cells/50 μl were seeded per well of a 96-wells plate. Treatment was initiated by addition of a 2× drug solution of ½ serial dilutions ranging from 0 to 10 μM. After incubating for 48 hours at 37° C., 10 μl of a ½ dilution of CellTiter-Blue reagent was added to each well and the plates were returned to the incubator for an additional 4 hours. The fluorescence intensity from the CellTiter-Blue reagent is proportional to the number of viable cells and data were recorded (544Ex/590Em) using a POLARstar OMEGA microplate reader (BMG LabteckSarl). A background control without cells was used as a blank. The positive control of the assay corresponds to the cell proliferation obtained in the absence of drug treatment (100% proliferation). Each sample was done in triplicate. The results were expressed as a percentage of the proliferation obtained in absence of treatment. All drugs were prepared as 20 mM stock solutions in DMSO and conserved at −80° C. Drug dilutions were made fresh in medium before each experiment. A DMSO control was included in each experiment.
The cell line expressing Human Kit WT was derived from the murine IL3-dependent Ba/F3 proB lymphoid cells. Ba/F3 Kit WT cells were maintained in RPMI medium containing 10% FCS and supplemented with 250 ng/ml of recombinant murine SCF.

Sequence of c-kit WT (P10721 26-976): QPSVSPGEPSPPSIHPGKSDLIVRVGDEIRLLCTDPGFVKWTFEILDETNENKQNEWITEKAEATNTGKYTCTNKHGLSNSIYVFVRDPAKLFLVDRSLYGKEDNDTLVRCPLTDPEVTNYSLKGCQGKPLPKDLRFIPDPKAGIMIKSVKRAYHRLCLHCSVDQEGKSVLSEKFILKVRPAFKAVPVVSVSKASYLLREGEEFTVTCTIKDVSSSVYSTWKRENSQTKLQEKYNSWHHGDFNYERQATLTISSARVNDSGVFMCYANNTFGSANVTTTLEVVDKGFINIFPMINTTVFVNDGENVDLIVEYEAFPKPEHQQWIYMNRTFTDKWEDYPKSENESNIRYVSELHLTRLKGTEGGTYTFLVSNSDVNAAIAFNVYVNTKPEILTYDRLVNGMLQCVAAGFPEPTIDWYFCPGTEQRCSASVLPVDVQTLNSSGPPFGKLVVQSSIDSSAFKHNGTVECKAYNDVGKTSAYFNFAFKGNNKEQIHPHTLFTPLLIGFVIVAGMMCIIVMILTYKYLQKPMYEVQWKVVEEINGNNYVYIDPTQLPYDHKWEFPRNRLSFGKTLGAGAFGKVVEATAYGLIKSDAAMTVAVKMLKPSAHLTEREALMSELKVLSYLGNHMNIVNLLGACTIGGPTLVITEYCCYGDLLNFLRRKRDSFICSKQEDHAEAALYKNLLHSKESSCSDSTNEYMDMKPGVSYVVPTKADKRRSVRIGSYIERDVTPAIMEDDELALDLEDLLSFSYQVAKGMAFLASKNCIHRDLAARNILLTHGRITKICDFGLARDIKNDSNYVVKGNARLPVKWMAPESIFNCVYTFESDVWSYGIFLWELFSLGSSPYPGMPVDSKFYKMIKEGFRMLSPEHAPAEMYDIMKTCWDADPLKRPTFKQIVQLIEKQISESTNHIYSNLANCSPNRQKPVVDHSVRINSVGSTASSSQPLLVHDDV

IC50	SMILES
≤ 1000 nM	Cc1cc2nc(-c3cncc(C(F)(F)F)c3)[nH]c2cc1Nc1nc(-c2cccnc2)cs1 [Compound 049, [6-Methyl-2-(5-trifluoromethyl-pyridin-3-yl)-3H-benzoimidazol-5-yl]-(4-pyridin-3-yl-thiazol-2-yl)-amine]
≤ 1000 nM	Cc1cc2nc(-c3ccc(C(F)(F)F)cc3)[nH]c2cc1Nc1nc(-c2ccncc2)cs1 [Compound 050, [6-Methyl-2-(4-trifluoromethyl-phenyl)-3H-benzoimidazol-5-yl]-(4-pyridin-4-yl-thiazol-2-yl)-amine]
1000 to 10000 nM	Cc1cc2nc(Cc3cccc(C(F)(F)F)c3)[nH]c2cc1Nc1ncc(-c2ccncc2)o1 [Compound 051, [6-Methyl-2-(3-trifluoromethyl-benzyl)-3H-benzoimidazol-5-yl]-(5-pyridin-4-yl-oxazol-2-yl)-amine]
1000 to 10000 nM	Cc1cc2nc(Cc3cccc(F)c3)[nH]c2cc1Nc1ncc(-c2ccncc2)o1 [Compound 052, [2-(3-Fluoro-benzyl)-6-methyl-3H-benzoimidazol-5-yl]-(5-pyridin-4-yl-oxazol-2-yl)-amine]
1000 to 10000 nM	Cc1cc2nc(-c3cccc(C(F)(F)F)c3)[nH]c2cc1Nc1ncc(-c2ccncc2)o1 [Compound 053, [6-Methyl-2-(3-trifluoromethyl-phenyl)-3H-benzoimidazol-5-yl]-(5-pyridin-4-yl-oxazol-2-yl)-amine]
1000 to 10000 nM	Cc1cc2nc(Cc3ccc(C(F)(F)F)cc3)[nH]c2cc1Nc1ncc(-c2ccncc2)o1 [Compound 054, [6-Methyl-2-(4-trifluoromethyl-benzyl)-3H-benzoimidazol-5-yl]-(5-pyridin-4-yl-oxazol-2-yl)-amine]
1000 to 10000 nM	Cc1cc2nc(CN3CCOCC3)[nH]c2cc1Nc1ncc(-c2ccncc2)o1 [Compound 055, (6-Methyl-2-morpholin-4-ylmethyl-3H-benzoimidazol-5-yl)-(5-pyridin-4-yl-oxazol-2-yl)-amine]
≤ 1000 nM	Cc1cc2nc(-c3ccc(C)c(C(F)(F)F)c3)[nH]c2cc1Nc1nc(-c2cccnc2)cs1 [Compound 056, [6-Methyl-2-(4-methyl-3-trifluoromethyl-phenyl)-3H-benzoimidazol-5-yl]-(4-pyridin-3-yl-thiazol-2-yl)-amine]
≤ 1000 nM	Cc1cc2nc(-c3ccc(-n4cccn4)cc3)[nH]c2cc1Nc1nc(-c2cccnc2)cs1 [Compound 057, [6-Methyl-2-(4-pyrazol-1-yl-phenyl)-3H-benzoimidazol-5-yl]-(4-pyridin-3-yl-thiazol-2-yl)-amine]
≤ 1000 nM	Cc1cc2nc(-c3cc(F)cc(C(F)(F)F)c3)[nH]c2cc1Nc1nc(-c2cccnc2)cs1 [Compound 058, [2-(3-Fluoro-5-trifluoromethyl-phenyl)-6-methyl-3H-benzoimidazol-5-yl]-(4-pyridin-3-yl-thiazol-2-yl)-amine]
1000 to 10000 nM	Cc1cc2nc(-c3ccc(Cl)cc3)[nH]c2cc1Nc1nc(-c2cccnc2)cs1 [Compound 059, [2-(4-Chloro-phenyl)-6-methyl-1H-benzoimidazol-5-yl]-(4-pyridin-3-yl-thiazol-2-yl)-amine]
1000 to 10000 nM	Cc1cc2nc(-c3ccc(F)cc3)[nH]c2cc1Nc1nc(-c2cccnc2)cs1 [Compound 060, [2-(4-Fluoro-phenyl)-6-methyl-1H-benzoimidazol-5-yl]-(4-pyridin-3-yl-thiazol-2-yl)-amine]
≤ 1000 nM	Cc1cc2nc(-c3cccc(C(F)F)c3)[nH]c2cc1Nc1nc(-c2cncnc2)cs1 [Compound 061, [2-(3-Difluoromethyl-phenyl)-6-methyl-3H-benzoimidazol-5-yl]-(4-pyrimidin-5-yl-thiazol-2-yl)-amine]
≤ 1000 nM	Cc1cc2nc(-c3cccc(C(F)(F)F)c3)[nH]c2cc1Nc1nc(-c2cncnc2)cs1 [Compound 062, [6-Methyl-2-(3-trifluoromethyl-phenyl)-3H-benzoimidazol-5-yl]-(4-pyrimidin-5-yl-thiazol-2-yl)-amine]
1000 to 10000 nM	Cc1cc2nc(-c3cccc(OC(F)(F)F)c3)[nH]c2cc1Nc1nc(-c2cncnc2)cs1 [Compound 063, [6-Methyl-2-(3-trifluoromethoxy-phenyl)-3H-benzoimidazol-5-yl]-(4-pyrimidin-5-yl-thiazol-2-yl)-amine]
1000 to 10000 nM	Cc1cc2nc(CN3CCOCC3)[nH]c2cc1Nc1nc(-c2cccnc2)cs1 [Compound 064, (6-Methyl-2-morpholin-4-ylmethyl-3H-benzoimidazol-5-yl)-(4-pyridin-3-yl-thiazol-2-yl)-amine]
1000 to 10000 nM	Cc1cc2nc(-c3ccc(CN4CCN(C)CC4)cc3)[nH]c2cc1Nc1nc(-c2cncnc2)cs1 [Compound 065, {6-Methyl-2-[4-(4-methyl-piperazin-1-ylmethyl)-phenyl]-3H-benzoimidazol-5-yl}-(4-pyrimidin-5-yl-thiazol-2-yl)-amine]

More lines, now with the values behind:

SMILES	IC50
Cc1cc2nc(-c3cc(CN4CCCCC4)cc(C(F)(F)F)c3)[nH]c2cc1Nc1nccc(-c2cccnc2)n1 [Compound 035, [6-Methyl-2-(3-piperidin-1-ylmethyl-5-trifluoromethyl-phenyl)-3H-benzoimidazol-5-yl]-(4-pyridin-3-yl-pyrimidin-2-yl)-amine]	≤ 1000 nM
Cc1cc2nc(-c3cc(C(C)(C)C)ccc3OCCN(C)C)[nH]c2cc1Nc1nccc(-c2cccnc2)n1 [Compound 036, {2-[5-tert-Butyl-2-(2-dimethylamino-ethoxy)-phenyl]-6-methyl-3H-benzoimidazol-5-yl}-(4-pyridin-3-yl-pyrimidin-2-yl)-amine]	1000 to 10000 nM
Cc1cc2nc(-c3cccc(OC(F)(F)F)c3)[nH]c2cc1Nc1nccc(-c2cccnc2)n1 [Compound 037, [6-Methyl-2-(3-trifluoromethoxy-phenyl)-3H-benzoimidazol-5-yl]-(4-pyridin-3-yl-pyrimidin-2-yl)-amine]	1000 to 10000 nM
Cc1cc2nc(-c3cccc(S(C)(=O)=O)c3)[nH]c2cc1Nc1nccc(-c2cccnc2)n1 [Compound 038, [2-(3-Methanesulfonyl-phenyl)-6-methyl-3H-benzoimidazol-5-yl]-(4-pyridin-3-yl-pyrimidin-2-yl)-amine]	1000 to 10000 nM
Cc1cc2nc(-c3cc(CN4CCN(C)CC4)cc(-c4cnco4)c3)[nH]c2cc1Nc1nccc(-c2cccnc2)n1 [Compound 039, {6-Methyl-2-[3-(4-methyl-piperazin-1-ylmethyl)-5-oxazol-5-yl-phenyl]-3H-benzoimidazol-5-yl}-(4-pyridin-3-yl-pyrimidin-2-yl)-amine]	1000 to 10000 nM
Cc1cc2nc(-c3cc(CN4CCN(C)CC4)cc(C(F)(F)F)c3)[nH]c2cc1Nc1nccc(-c2cccnc2)n1 [Compound 040, {6-Methyl-2-[3-(4-methyl-piperazin-1-ylmethyl)-5-trifluoromethyl-phenyl]-3H-benzoimidazol-5-yl}-(4-pyridin-3-yl-pyrimidin-2-yl)-amine]	1000 to 10000 nM
Cc1cc2nc(-c3ccc(C)c(C(F)(F)F)c3)[nH]c2cc1Nc1nccc(-c2cccnc2)n1 [Compound 041, [6-Methyl-2-(4-methyl-3-trifluoromethyl-phenyl)-3H-benzoimidazol-5-yl]-(4-pyridin-3-yl-pyrimidin-2-yl)-amine]	≤ 1000 nM
Cc1cc2nc(-c3cncc(C(F)(F)F)c3)[nH]c2cc1Nc1nccc(-c2cccnc2)n1 [Compound 042, [6-Methyl-2-(5-trifluoromethyl-pyridin-3-yl)-3H-benzoimidazol-5-yl]-(4-pyridin-3-yl-pyrimidin-2-yl)-amine]	1000 to 10000 nM
Cc1cc2nc(-c3cccc(CN4CCN(C)CC4)c3)[nH]c2cc1Nc1nccc(-c2cccnc2)n1 [Compound 043, {6-Methyl-2-[3-(4-methyl-piperazin-1-ylmethyl)-phenyl]-3H-benzoimidazol-5-yl}-(4-pyridin-3-yl-pyrimidin-2-yl)-amine]	1000 to 10000 nM
Cc1cc2nc(-c3cccc(CN4CCN(C)CC4)c3)[nH]c2cc1Nc1nc(-c2cccnc2)cs1 [Compound 044, {6-Methyl-2-[3-(4-methyl-piperazin-1-ylmethyl)-phenyl]-1H-benzoimidazol-5-yl}-(4-pyridin-3-yl-thiazol-2-yl)-amine]	1000 to 10000 nM
Cc1cc2nc(-c3cccc(C(F)F)c3)[nH]c2cc1Nc1nc(-c2ccncc2)cs1 [Compound 045, [2-(3-Difluoromethyl-phenyl)-6-methyl-3H-benzoimidazol-5-yl]-(4-pyridin-4-yl-thiazol-2-yl)-amine]	≤ 1000 nM
Cc1cc2nc(-c3cccc(CN4CCN(C)CC4)c3)[nH]c2cc1Nc1nc(-c2ccncc2)cs1 [Compound 046, {6-Methyl-2-[3-(4-methyl-piperazin-1-ylmethyl)-phenyl]-1H-benzoimidazol-5-yl}-(4-pyridin-4-yl-thiazol-2-yl)-amine]	1000 to 10000 nM
Cc1cc2nc(-c3cccc(OC(F)(F)F)c3)[nH]c2cc1Nc1nc(-c2ccncc2)cs1 [Compound 047, [6-Methyl-2-(3-trifluoromethoxy-phenyl)-3H-benzoimidazol-5-yl]-(4-pyridin-4-yl-thiazol-2-yl)-amine]	≤ 1000 nM
Cc1cc2nc(-c3ccc(CN4CCN(C)CC4)cc3)[nH]c2cc1Nc1nc(-c2ccncc2)cs1 [Compound 048, {6-Methyl-2-[4-(4-methyl-piperazin-1-ylmethyl)-phenyl]-1H-benzoimidazol-5-yl}-(4-pyridin-4-yl-thiazol-2-yl)-amine]	1000 to 10000 nM
